Marks after values point to notes of the source that are not given here.
Tests used:
[1] = system: rats with spontaneous hypertension (SHR); test: myocardial remodeling and blood pressure in rats with spontaneous hypertension (SHR); assay type: in vivo, rat; conditions: losartan 6 mg/kg intragastric qd
Description: 1. Thirty 13-week-old rats with spontaneous hypertension (SHR, purchased from Beijing Vital River Laboratory Animal Technology Co. Ltd., Beijing) were selected and randomly assigned into five groups with 6 rats per group:
SHR model group (Vehicle): 0.9% physiological saline, intraperitoneal injection at a dosage of 5 ml/kg, bid.
Positive control group (losartan): potassium losartan at a dosage of 6 mg/kg, intragastric administration, qd.
The pentadecapeptide group: administration of the pentadecapeptide at a dosage of 30 μg/kg by intraperitoneal injection, bid.
The heptacosapeptide group: administration of the heptacosapeptide at a dosage of 30 μg/kg by intraperitoneal injection, bid.
The pantapentacontapeptide group: administration of the pantapentacontapeptide at a dosage of 30 μg/kg by intraperitoneal injection, bid.
Six of INKY (Wistar-Kyoto) rats (purchased from Center for Experimental Animals, Third Military Medical University) were additionally selected as the normal control.
2. Intervention with the drug was performed consecutively for eight weeks (from Week 14 to Week 21). The body weights of all the tested rats were obtained once every two weeks, and the administration dosage was adjustedbased on body weights.

[2] = clinical dosage converted into the dosage in the mouse; cited from earlier work
[3] = echocardiography, SHR, x ± s, n = 6

For `CCCCc1nc(Cl)c(CO)n1Cc1ccc(-c2ccccc2-c2nn[nH]n2)cc1` [Losartan, potassium losartan], the “Systolic blood pressure of artery” value ([1]; 0 w, SHR, x ± s, n = 6) was 178.3 ± 2.24 mmHg, the “Systolic blood pressure of artery” value ([1]; 2 w, SHR, x ± s, n = 6) was 165.1 ± 4.80 mmHg and the “Systolic blood pressure of artery” value ([1]; 4 w, SHR, x ± s, n = 6) was 177.1 ± 8.27 mmHg. For the same compound, the “Systolic blood pressure of artery” value ([1]; 6 w, SHR, x ± s, n = 6) was 178.3 ± 6.23 mmHg, the “Systolic blood pressure of artery” value ([1]; 8 w, SHR, x ± s, n = 6) was 172.6 ± 4.82 mmHg and the “EF (ejection fraction)” value [1, 3] was 88.8 ± 2.62%. The “FS (shortening fraction)” value [1, 3] was 53.6 ± 3.57%, the “IVST (intervertricular septum thickness)” value [1, 3] was 1.87 ± 0.18 mm and the “LAD (left atrium sinistrum diameter)” value [1, 3] was 3.25 ± 0.23 mm. For the same compound, the “LVEDD (left ventricular end diastolic diameter)” value [1, 3] was 5.05 ± 0.42 mm, the LVESD [1, 3] was 2.33 ± 0.18 mm and the “PWT (left ventricular posterior wall thickness)” value [1, 3] was 2.25 ± 0.21 mm. For the same compound, the “SV (stroke volume)” value [1, 3] was 0.21 ± 0.04 mL, the HI ([1]; eight weeks, SHR, x ± s, n = 6) was 3.48 ± 0.05 mg/g and the HW ([1]; eight weeks, SHR, x ± s, n = 6) was 1003 ± 16 mg. The LVI ([1]; eight weeks, SHR, x ± s, n = 6) was 2.74 ± 0.28 mg/g, the LVW ([1]; eight weeks, SHR, x ± s, n = 6) was 789 ± 88 mg and the “morphology of the cardiac muscle tissues, light microscope” value ([1]; FIG. 2) was “Pathological changes are somewhat improved”. For the same compound, the “ultrastructure of the SHR cardiocyte, transmission electron microscope” value ([1]; FIG. 5) was “morphology of the cellular nucleus is essentially normal and somewhat irregular”, the “CSA in comparison with the model group” value ([1]; P<0.01) was “significantly decreased” and the “CSA (cross section area of the cardiocyte)” value ([1]; SHR, x ± s, n = 6) was 335 ± 20** μm^2. For the same compound, the “TDM (trans diameter of the cardiocyte)” value ([1]; SHR, x ± s, n = 6) was 13.83 ± 2.54 μm and the “ratio of mouse LD50/routine dosage” value [2] was 349.

— patent US8697839B2, “GQ protein competitive inhibitory polypeptides, preparation methods and uses thereof” (Third Military Medical University, priority 2008, dated 2014)
